This note sets out measurements from US20240158446A1, “CYCLIC COMPOUND HAVING SELECTIVE INHIBITORY ACTION ON KRAS OVER HRAS AND NRAS” (CHUGAI SEIYAKU KABUSHIKI KAISHA, priority 2021, published 2024).

Test [1] addresses GDP-bound HRAS wild-type protein (Homo sapiens, UniProt P01112). In words: Binding to HRAS by surface plasmon resonance (SPR), Single Cycle Kinetics. The following applies: SPR, GDP-bound HRAS wild-type protein vs GDP-bound KRAS wild-type protein.
Test [2] concerns the target GDP-bound KRAS wild-type protein (Homo sapiens, UniProt P01116). Put plainly: Binding to KRAS by surface plasmon resonance (SPR), Single Cycle Kinetics. The conditions noted are these: 1:1 binding model, GDP-bound KRAS wild-type protein, read-out: KRAS KD.
In test [3] the target is GDP-bound NRAS wild-type protein (Homo sapiens, UniProt P01111). In words: Binding to NRAS by surface plasmon resonance (SPR), Single Cycle Kinetics. The following applies: SPR, GDP-bound NRAS wild-type protein vs GDP-bound KRAS wild-type protein.

Molecules are shown by their SMILES. Like-named read-outs stand apart in the source and are kept apart here. *1 amine or outer side, *2 acyl side, *3 side chain or, on linkers, in order; H or OH if unused. Where a SMILES comes first, the peptide text is derived from it. Bridges are numbered along the chain shown (N, C = ends). [ ]: non-standard residue; d: D form. The star is where a group is joined. hPhe(3,5-F2-4-CF3) = N[C@@H](CCc1cc(F)c(C(F)(F)F)c(F)c1)C(=O)O; hPhe(3-Cl-4-CF3) = N[C@@H](CCc1ccc(C(F)(F)F)c(Cl)c1)C(=O)O; NPrPhe(4-CF3) = CCCN[C@@H](Cc1ccc(C(F)(F)F)cc1)C(=O)O; X19 = CCCN([C@@H](CC1CCC(F)(F)CC1)C(=O)[*:2])[*:1]; NMeGly(cPent) = CN[C@H](C(=O)O)C1CCCC1; Nva(3-Et) = CCC(CC)[C@H](N)C(=O)O; Hyp = O=C(O)[C@@H]1C[C@@H](O)CN1; NMeD = CN[C@@H](CC(=O)O)C(=O)O; NMeL = CN[C@@H](CC(C)C)C(=O)O; Morpholide = C1CN(*)CCO1; Ac5c = NC1(C(=O)O)CCCC1; NEtG = CCNCC(=O)O; Sar = CNCC(=O)O

Chain of GDP-bound KRAS wild-type protein (P01116 whole entry): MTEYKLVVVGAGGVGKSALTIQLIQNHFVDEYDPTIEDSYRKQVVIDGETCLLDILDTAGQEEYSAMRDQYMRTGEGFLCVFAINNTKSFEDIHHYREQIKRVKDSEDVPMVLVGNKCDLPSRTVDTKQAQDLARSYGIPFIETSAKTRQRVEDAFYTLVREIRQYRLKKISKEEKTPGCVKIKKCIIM
Chain of GDP-bound HRAS wild-type protein (P01112 whole entry): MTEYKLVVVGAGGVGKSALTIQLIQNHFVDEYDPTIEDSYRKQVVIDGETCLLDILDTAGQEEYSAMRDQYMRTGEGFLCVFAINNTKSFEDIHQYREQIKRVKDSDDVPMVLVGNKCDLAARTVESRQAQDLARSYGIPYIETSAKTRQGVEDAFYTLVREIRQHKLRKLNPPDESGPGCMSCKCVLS
Chain of GDP-bound NRAS wild-type protein (P01111 whole entry): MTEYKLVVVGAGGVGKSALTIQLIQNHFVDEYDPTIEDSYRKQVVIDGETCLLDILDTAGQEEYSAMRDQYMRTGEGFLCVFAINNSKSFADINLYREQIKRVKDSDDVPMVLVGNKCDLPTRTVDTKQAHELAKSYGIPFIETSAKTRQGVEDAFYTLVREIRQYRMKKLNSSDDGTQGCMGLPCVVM

Consider `CC[C@H](C)[C@@H]1NC(=O)[C@H](CC(C)C)N(C)C(=O)C[C@@H](C(=O)N(C)C)N(C)C(=O)[C@H](C2CCCC2)N(C)C(=O)C2(CCC2)NC(=O)[C@@H]2[C@@H](OCC(F)F)CCN2C(=O)[C@H](CCc2cc(F)c(C(F)(F)F)c(F)c2)NC(=O)CN(C)C(=O)[C@H](Cc2ccc(C(F)(F)F)cc2)N2CC/C=C\C[C@@H](C2=O)N(C)C(=O)CN(C)C1=O` [PP1534, (2S,8S,13S,14S,20S,23S,27S,30S,36S,38Z)-20-cyclopentyl-13-(2,2-difluoroethoxy)-8-[2-[3,5-difluoro-4-(trifluoromethyl)phenyl]ethyl]-27-isobutyl-N,N,4,19,22,26,32,35-octamethyl-30-[(1S)-1-methylpropyl]-3,6,9,15,18,21,25,28,31,34,42-undecaoxo-2-[[4-(trifluoromethyl)phenyl]methyl]spiro[1,4,7,10,16,19,22,26,29,32,35-undecazatricyclo[34.5.1.0^10,14]dotetracont-38-ene-17,1′-cyclobutane]-23-carboxamide], for which, in test [1] (KD ratio class), the “HRAS/KRAS (ratio of KD value for HRAS to KD value for KRAS)” value is “A (a compound having 10 or more and less than 20 is denoted as A)”. Moreover, the Kd in test [2] (SPR, Single Cycle Kinetics) worked out at 0.13 nM. Moreover, the “NRAS/KRAS (ratio of KD value for NRAS to KD value for KRAS)” value in test [3] (KD ratio class) was “AA (a compound having 20 or more is denoted as AA)”.

Take `CCCN1C(=O)CN(C)C(=O)CN(C)C(=O)[C@H](C(CC)CC)NC(=O)[C@H](CC(C)C)N(C)C(=O)C[C@@H](C(=O)N2CCOCC2)N(C)C(=O)[C@H](C2CCCC2)N(C)C(=O)C2(CCCC2)NC(=O)[C@@H]2CCCN2C(=O)[C@H](CCc2cc(F)c(C(F)(F)F)c(F)c2)NC(=O)CN(C)C(=O)[C@@H]1Cc1ccc(C(F)(F)F)cc1` [PP0768] ([NMeL][Nva(3-Et)][Sar][Sar][NPrPhe(4-CF3)][Sar][hPhe(3,5-F2-4-CF3)]P[Ac5c][NMeGly(cPent)][NMeD]-Morpholide; lactam N-11): the “HRAS/KRAS (ratio of KD value with respect to HRAS to KD value with respect to KRAS)” value in test [1] was “C (A compound having a KD ratio of 0.1 or more and less than 3 is denoted as C)”. The Kd in test [2] (SPR Single Cycle Kinetics) was 0.97 nM. The “NRAS/KRAS (ratio of KD value with respect to NRAS to KD value with respect to KRAS)” value in test [3] was “B (a compound having 3 or more and less than 10 is denoted as B)”.

`CCCN1C(=O)CN(C)C(=O)CN(CC)C(=O)[C@H]([C@@H](C)CC)NC(=O)[C@H](CC(C)C)N(C)C(=O)C[C@@H](C(=O)N2CCOCC2)NC(=O)[C@H](C2CCCC2)N(C)C(=O)C2(CCCC2)NC(=O)[C@@H]2C[C@@H](OCC)CN2C(=O)[C@H](CCc2ccc(C(F)(F)F)c(Cl)c2)NC(=O)CN(C)C(=O)[C@@H]1Cc1ccc(C(F)(F)F)cc1` [PP0335] ([NMeL]I[NEtG][Sar][NPrPhe(4-CF3)][Sar][hPhe(3-Cl-4-CF3)][Hyp](Et)[Ac5c][NMeGly(cPent)]D-Morpholide; lactam N-11): the “HRAS/KRAS (ratio of KD value for HRAS to KD value for KRAS)” value in test [1] was “C (A compound having a KD ratio of 0.1 or more and less than 3 is denoted as C)”. For the same compound, the Kd in test [2] (SPR Single Cycle Kinetics) came out at 1.3 nM. Moreover, the “NRAS/KRAS (ratio of KD value for NRAS to KD value for KRAS)” value in test [3] was “B (a compound having 3 or more and less than 10 is denoted as B)”.

As to `CCCN1C(=O)CN(C)C(=O)CN(C)C(=O)[C@H]([C@@H](C)CC)NC(=O)[C@H](CC(C)C)N(C)C(=O)C[C@@H](C(=O)N2CCOCC2)N(C)C(=O)[C@H](C2CCCC2)N(C)C(=O)C2(CCCC2)NC(=O)[C@@H]2CCCN2C(=O)[C@H](CCc2ccc(C(F)(F)F)c(Cl)c2)NC(=O)CN(C)C(=O)[C@@H]1CC1CCC(F)(F)CC1` [PP0526] ([NMeL]I[Sar][Sar][X19][Sar][hPhe(3-Cl-4-CF3)]P[Ac5c][NMeGly(cPent)][NMeD]-Morpholide; lactam N-11), in test [1], the “HRAS/KRAS (ratio of KD value with respect to HRAS to KD value with respect to KRAS)” value was “C (A compound having a KD ratio of 0.1 or more and less than 3 is denoted as C)”. In addition, the Kd in test [2] (SPR Single Cycle Kinetics) was 0.074 nM. In test [3], the “NRAS/KRAS (ratio of KD value with respect to NRAS to KD value with respect to KRAS)” value was “B (a compound having 3 or more and less than 10 is denoted as B)”.
